Assay results: ChEMBL document CHEMBL4823245, “Development of an In Silico Prediction Model for P-glycoprotein Efflux Potential in Brain Capillary Endothelial Cells toward the Prediction of Brain Penetration” (J Med Chem, 2021)

Key:
[1] = Unbound plasma concentration in P-gp knock out Sprague-Dawley rat at 5 mg/ml/kg, po measured upto 4 hrs by LC-MS analysis
[2] = Unbound brain concentration in P-gp knock out Sprague-Dawley rat at 5 mg/ml/kg, po measured upto 4 hrs by LC-MS analysis; details: in vivo
[3] = Ratio of drug concentration in brain to plasma of P-gp knock out Sprague-Dawley rat
[4] = Unbound brain-to-plasma concentration ratio in P-gp knock out Sprague-Dawley rat

Structure (SMILES)	fraction unbound at 4 h ([1]; plasma)	Fu [2]	Kp ([3]; brain)	Kp uu ([4]; brain)	Kp ([3]; brain/plasma)	Kp uu ([4]; brain/plasma)	fraction unbound at 4 h ([1]; in vivo)	Fu ([1]; in vivo, 4 h)
CC(C)(C)NC(=O)[C@@H]1C[C@@H]2CCCC[C@@H]2CN1C[C@@H](O)[C@H](Cc1ccccc1)NC(=O)[C@H](CC(N)=O)NC(=O)c1ccc2ccccc2n1	0.005	0.006	0.067	0.014	–	–	–	–
CC(C)CN(C[C@@H](O)[C@H](Cc1ccccc1)NC(=O)O[C@H]1CCOC1)S(=O)(=O)c1ccc(N)cc1	0.129	–	–	–	–	–	–	–
O=C(O)CCCN1CCC(OC(c2ccc(Cl)cc2)c2ccccn2)CC1 (configuration not stated)	0.642	–	–	–	0.031	0.018	–	–
Cc1c(O)cccc1C(=O)N[C@@H](CSc1ccccc1)[C@H](O)CN1C[C@H]2CCCC[C@H]2C[C@H]1C(=O)NC(C)(C)C	0.003	–	–	–	–	0.007	–	–
CN1CC[C@H](c2c(O)cc(O)c3c(=O)cc(-c4ccccc4Cl)oc23)[C@H](O)C1 [ALVOCIDIB]	0.051	–	–	–	0.451	0.234	–	–
COc1ccc(CCN2CCC(Nc3nc4ccccc4n3Cc3ccc(F)cc3)CC2)cc1 [ASTEMIZOLE]	–	0.004	38.9	0.577	–	–	0.011	–
CC[C@H]1OC(=O)[C@H](C)[C@@H](O[C@H]2C[C@@](C)(OC)[C@@H](O)[C@H](C)O2)[C@H](C)[C@@H](O[C@@H]2O[C@H](C)C[C@H](N(C)C)[C@H]2O)[C@](C)(OC)C[C@@H](C)C(=O)[C@H](C)[C@@H](O)[C@]1(C)O [CLARITHROMYCIN]	–	0.113	1.96	0.014	–	–	0.377	–
C[C@@H](Oc1cc(-c2cnn(C3CCNCC3)c2)cnc1N)c1c(Cl)ccc(F)c1Cl [CRIZOTINIB]	0.03	–	–	–	5.55	0.017	–	–
Cc1nc(Nc2ncc(C(=O)Nc3c(C)cccc3Cl)s2)cc(N2CCN(CCO)CC2)n1.O [DASATINIB]	0.026	0.013	0.061	0.016	–	–	–	–
Clc1ccc2c(c1)CCc1cccnc1C2=C1CCNCC1 [DESLORATADINE]	0.19	–	–	–	–	0.061	–	–
C[C@@H]1C[C@H]2[C@@H]3CCC4=CC(=O)C=C[C@]4(C)[C@@]3(F)[C@@H](O)C[C@]2(C)[C@@]1(O)C(=O)CO [DEXAMETHASONE]	0.159	–	–	–	–	–	–	–
C[C@H]1O[C@@H](O[C@H]2[C@@H](O)C[C@H](O[C@H]3[C@@H](O)C[C@H](O[C@H]4CC[C@@]5(C)[C@H](CC[C@@H]6[C@@H]5C[C@@H](O)[C@]5(C)[C@@H](C7=CC(=O)OC7)CC[C@]65O)C4)O[C@@H]3C)O[C@@H]2C)C[C@H](O)[C@@H]1O [DIGOXIN]	–	–	–	–	–	–	0.583	–
CC(C)N(CCC(C(N)=O)(c1ccccc1)c1ccccn1)C(C)C (configuration not stated) [DISOPYRAMIDE]	–	0.491	1.02	0.036	–	–	0.669	–
O=c1[nH]c2ccccc2n1CCCN1CCC(n2c(=O)[nH]c3cc(Cl)ccc32)CC1 [DOMPERIDONE]	–	0.017	–	–	–	–	0.029	–
COc1cc([C@@H]2c3cc4c(cc3[C@@H](O[C@@H]3O[C@@H]5CO[C@@H](C)O[C@H]5[C@H](O)[C@H]3O)[C@H]3COC(=O)[C@H]23)OCO4)cc(OC)c1O [ETOPOSIDE]	–	0.539	0.037	0.024	–	–	0.357	–
Cc1ccc(NC(=O)c2ccc(CN3CCN(C)CC3)cc2)cc1Nc1nccc(-c2cccnc2)n1 [IMATINIB]	–	–	–	–	–	0.041	–	–
COc1ccc2c(c1)c(CC(=O)O)c(C)n2C(=O)c1ccc(Cl)cc1 [INDOMETHACIN]	0.008	0.048	0.009	0.074	–	–	–	–
CCN(CC)CCNC(=O)c1cc(Cl)c(N)cc1OC [METOCLOPRAMIDE]	–	0.817	5.05	2.45	–	–	0.677	–
Cc1nc2n(c(=O)c1CCN1CCC(c3noc4cc(F)ccc34)CC1)CCCC2O (configuration not stated) [PALIPERIDONE]	0.047	–	–	–	0.867	0.443	–	–
COc1cc2nc(N3CCN(C(=O)c4ccco4)CC3)nc(N)c2cc1OC [PRAZOSIN]	0.264	–	–	–	0.247	0.164	–	–
C=C[C@H]1C[N@@]2CC[C@H]1C[C@@H]2[C@@H](O)c1ccnc2ccc(OC)cc12 [QUINIDINE]	–	–	–	0.065	–	–	–	–
Cc1nc2n(c(=O)c1CCN1CCC(c3noc4cc(F)ccc34)CC1)CCCC2 [RISPERIDONE]	–	0.12	1.56	–	–	1.38	–	0.033
CC[C@H](CO)Nc1nc(NCc2ccccc2)c2ncn(C(C)C)c2n1 [SELICICLIB]	0.048	–	–	–	1.26	0.205	–	–
CCN(CC)CCNC(=O)c1c(C)[nH]c(/C=C2\C(=O)Nc3ccc(F)cc32)c1C [SUNITINIB]	0.007	–	–	–	0.481	0.414	–	–
CN(C)CCc1c[nH]c2ccc(C[C@H]3COC(=O)N3)cc12 [ZOLMITRIPTAN]	–	1	0.043	0.035	–	–	0.942	–
